According to US7872014B2, “Anaplastic lymphoma kinase modulators and methods of use” (Exelixis, Inc., priority 2003, dated 2011):

Each compound was assayed against T1, ALK (baculovirus expressed human ALK kinase domain F1098-K1410) (Homo sapiens, UniProt Q9UM73) (assay: Luciferase-Coupled Chemiluminescent Kinase assay (LCCA), ALK biochemical activity). Conditions: inhibition of ALK; mean values; 1 μM ATP, 4 μM poly-AEKY, 12 nM ALK, 2 hours ambient temperature.
T1 construct: baculovirus expressed human ALK kinase domain F1098-K1410; made in house
T1 sequence (Q9UM73 1098-1410): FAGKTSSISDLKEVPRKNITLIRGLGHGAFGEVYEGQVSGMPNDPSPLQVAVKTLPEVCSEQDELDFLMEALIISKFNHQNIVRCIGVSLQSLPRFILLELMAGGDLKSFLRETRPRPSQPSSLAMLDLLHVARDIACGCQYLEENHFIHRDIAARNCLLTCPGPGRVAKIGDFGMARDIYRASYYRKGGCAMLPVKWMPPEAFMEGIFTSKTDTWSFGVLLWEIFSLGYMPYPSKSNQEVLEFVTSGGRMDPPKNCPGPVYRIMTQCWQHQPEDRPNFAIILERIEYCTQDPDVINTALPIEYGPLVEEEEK
Method: ALK biochemical activity was assessed using a Luciferase-Coupled Chemiluminescent Kinase assay (LCCA) format in which kinase activity was measured as the percent ATP remaining following the kinase reaction. ATP remaining after the kinase reaction was detected by luciferase-luciferin-coupled chemiluminescence.
The reaction was initiated by mixing test compounds, 1 μM ATP, 4 μM poly-AEKY and 12 nM ALK (baculovirus expressed human ALK kinase domain F1098-K1410) in a 20 μL assay buffer ([…] pH 7.5, 10 mM MgCl2, 0.02% Triton X-100, 100 mM DTT, 2 mM MnCl2). The mixture was incubated at ambient temperature for 2 hours after which 20 μL luciferase-luciferin mix was added and the chemiluminescent signal read using a Wallac Victor^2 reader. The luciferase-luciferin mix consists of 50 mM HEPES, pH 7.8, 8.5 μg/mL oxalic acid (pH 7.8), 5 (or 50) mM DTT, 0.4% Triton X-100, 0.25 mg/mL coenzyme A, 63 μM AMP, 28 μg/mL luciferin and 40,000 units of light/mL luciferase.
Consumption of ATP by ALK can thus be quantified and utilized as a measure of inhibition of ALK activity by compounds described herein. By employing serial dilutions of compounds to be tested, the ability of test compounds to inhibit ALK activity can be determined.

Row | IC50 | SMILES
1 | ≤ 99 nM | CCN1CCC(CCOc2cc(F)c3c(-c4ccc(O)c(Cl)c4)nc4[nH]nc(C)c4c3c2OC)CC1 [Example 218, 2-chloro-4-[8-{[2-(1-ethylpiperidin-4-yl)ethyl]oxy}-6-fluoro-1-methyl-9-(methyloxy)-3H-pyrazolo[3,4-c]isoquinolin-5-yl]phenol]
2 | ≤ 99 nM | Cc1n[nH]c2nc(-c3ccc(O)c(Cl)c3)c3c(F)cc(OCC4CCN(C)CC4)c(F)c3c12 [Example 169, 2-chloro-4-(6,9-difluoro-1-methyl-8-{[(1-methylpiperidin-4-yl)methyl]oxy}-3H-pyrazolo[3,4-c]isoquinolin-5-yl)phenol]
3 | 100 to 999 nM | CCOc1cc2c(cc1OC)c(-c1ccc(O)c(Cl)c1)nc1[nH]nc(C)c12 [Example 128, 2-chloro-4-[8-(ethyloxy)-1-methyl-7-(methyloxy)-3H-pyrazolo[3,4-c]isoquinolin-5-yl]phenol]
4 | 100 to 999 nM | COCc1n[nH]c2nc(-c3ccc(O)c(Cl)c3)c3cc(OC)c(OC)cc3c12 [Example 138, 4-{7,8-bis(methyloxy)-1-[(methyloxy)methyl]-3H-pyrazolo[3,4-c]isoquinolin-5-yl}-2-chlorophenol]
5 | 100 to 999 nM | Cc1n[nH]c2nc(-c3nnc(N)s3)c3c(F)cc(O)c(F)c3c12 [Example 212, 5-(5-amino-1,3,4-thiadiazol-2-yl)-6,9-difluoro-1-methyl-3H-pyrazolo[3,4-c]isoquinolin-8-ol]
6 | ≤ 99 nM | COc1c(OCCN2CCCCC2)cc2c(c(-c3ccc(O)c(Cl)c3)nc3[nH]nc(C)c32)c1F [Example 176, 2-chloro-4-{6-fluoro-1-methyl-7-(methyloxy)-8-[(2-piperidin-1-ylethyl)oxy]-3H-pyrazolo[3,4-c]isoquinolin-5-yl}phenol]
7 | 100 to 999 nM | CCOc1cc(-c2nc3[nH]nc(C)c3c3cc(OC)c(OC)cc23)ccc1O [Example 40, 2-(ethyloxy)-4-[1-methyl-7,8-bis(methyloxy)-3H-pyrazolo[3,4-c]isoquinolin-5-yl]phenol]
8 | ≤ 99 nM | Cc1n[nH]c2nc(-c3cc(Cl)c(O)cc3F)c3c(F)c4c(c(F)c3c12)OCCO4 [Example 158, 2-chloro-4-(6,11-difluoro-1-methyl-8,9-dihydro-3H-[1,4]dioxino[2,3-g]pyrazolo[3,4-c]isoquinolin-5-yl)-5-fluorophenol]
9 | 100 to 999 nM | CCOc1cc2c(-c3ccc(O)cc3)nc3[nH]nc(C)c3c2cc1OC [Example 60, 4-[7-(ethyloxy)-1-methyl-8-(methyloxy)-3H-pyrazolo[3,4-c]isoquinolin-5-yl]phenol]
10 | ≤ 99 nM | COc1c(OCCN2CCCC3CCCCC32)cc(F)c2c(-c3ccc(O)c(Cl)c3)nc3[nH]nc(C)c3c12 (stereo not drawn) [Example 242, 2-chloro-4-(6-fluoro-1-methyl-9-(methyloxy)-8-{[2-(octahydroquinolin-1(2H)-yl)ethyl]oxy}-3H-pyrazolo[3,4-c]isoquinolin-5-yl)phenol]
11 | 100 to 999 nM | COc1ccc2c(-c3ccc(O)c(Br)c3)nc3[nH]nc(C)c3c2c1OCCN1CCOCC1 [Example 80, 2-bromo-4-{1-methyl-8-(methyloxy)-9-[(2-morpholin-4-ylethyl)oxy]-3H-pyrazolo[3,4-c]isoquinolin-5-yl}phenol]
12 | ≤ 99 nM | COc1ccc2c(-c3ccc(O)cc3)nc3[nH]nc(C)c3c2c1Br [Example 104, 4-[9-bromo-1-methyl-8-(methyloxy)-3H-pyrazolo[3,4-c]isoquinolin-5-yl]phenol]
13 | ≤ 99 nM | COc1ccc2c(-c3ccc(O)cc3)nc3[nH]nc(C)c3c2c1F [Example 89, 4-[9-fluoro-1-methyl-8-(methyloxy)-3H-pyrazolo[3,4-c]isoquinolin-5-yl]phenol]
14 | > 2000 nM | Cc1n[nH]c2nc(-c3cccc(Cl)c3)c3ccc4c(c3c12)OCCO4 [Example 149, 7-(3-chlorophenyl)-11-methyl-2,3-dihydro-9H-[1,4]dioxino[2,3-f]pyrazolo[3,4-c]isoquinoline]
15 | 100 to 999 nM | COc1cc2c(cc1OCC1CCNCC1)c(-c1ccc(O)cc1)nc1[nH]nc(C)c12 [Example 55, 4-{1-methyl-8-(methyloxy)-7-[(piperidin-4-ylmethyl)oxy]-3H-pyrazolo[3,4-c]isoquinolin-5-yl}phenol]
16 | ≤ 99 nM | COc1cc2c(-c3ccc(O)c(Br)c3)nc3[nH]nc(C)c3c2cc1OC [Example 44, 2-bromo-4-[1-methyl-7,8-bis(methyloxy)-3H-pyrazolo[3,4-c]isoquinolin-5-yl]phenol]
17 | ≤ 99 nM | COc1c(OCCCN2CCCCC2)cc(F)c2c(-c3ccc(O)c(Cl)c3)nc3[nH]nc(C)c3c12 [Example 225, 2-chloro-4-{6-fluoro-1-methyl-9-(methyloxy)-8-[(3-piperidin-1-ylpropyl)oxy]-3H-pyrazolo[3,4-c]isoquinolin-5-yl}phenol]

Row | IC50 | SMILES
18 | ≤ 99 nM | COc1cc2c(-c3ccc(O)c(Cl)c3)nc3[nH]nc(C)c3c2cc1OCC1CCOCC1 [Example 161, 2-chloro-4-{1-methyl-7-(methyloxy)-8-[(tetrahydro-2H-pyran-4-ylmethyl)oxy]-3H-pyrazolo[3,4-c]isoquinolin-5-yl}phenol]
19 | ≤ 99 nM | COCCOc1cc(F)c2c(-c3cc(Cl)c(O)cc3F)nc3[nH]nc(C)c3c2c1OC [Example 143, 2-chloro-5-fluoro-4-(6-fluoro-1-methyl-9-(methyloxy)-8-{[2-(methyloxy)ethyl]oxy}-3H-pyrazolo[3,4-c]isoquinolin-5-yl)phenol]
20 | ≤ 99 nM | COCCOc1ccc2c(-c3ccc(O)c(Cl)c3)nc3[nH]nc(C)c3c2c1OCCOC [Example 110, 2-chloro-4-(1-methyl-8,9-bis{[2-(methyloxy)ethyl]oxy}-3H-pyrazolo[3,4-c]isoquinolin-5-yl)phenol]
21 | > 2000 nM | COc1ccc(-c2nc3[nH]nc(C)c3c3cc(F)c(OC)c(O)c23)cc1Cl [Example 174, 5-[3-chloro-4-(methyloxy)phenyl]-8-fluoro-1-methyl-7-(methyloxy)-3H-pyrazolo[3,4-c]isoquinolin-6-ol]
22 | ≤ 99 nM | COc1c(OC2CC3CCC(C2)N3C)cc(F)c2c(-c3ccc(O)c(Cl)c3)nc3[nH]nc(C)c3c12 (stereo not drawn) [Example 223, 2-chloro-4-[6-fluoro-1-methyl-8-[(8-methyl-8-azabicyclo[3.2.1]oct-3-yl)oxy]-9-(methyloxy)-3H-pyrazolo[3,4-c]isoquinolin-5-yl]phenol]
23 | ≤ 99 nM | COc1c(OCCN2CCCN(C)CC2)cc(F)c2c(-c3ccc(O)c(Cl)c3)nc3[nH]nc(C)c3c12 [Example 237, 2-chloro-4-[6-fluoro-1-methyl-8-{[2-(4-methyl-1,4-diazepan-1-yl)ethyl]oxy}-9-(methyloxy)-3H-pyrazolo[3,4-c]isoquinolin-5-yl]phenol]
24 | ≤ 99 nM | COCCOc1cc2c(cc1OC)c(-c1ccc(O)c(Br)c1)nc1[nH]nc(C)c12 [Example 116, 2-bromo-4-(1-methyl-7-(methyloxy)-8-{[2-(methyloxy)ethyl]oxy}-3H-pyrazolo[3,4-c]isoquinolin-5-yl)phenol]
25 | ≤ 99 nM | COCCOc1cc(F)c2c(-c3ccc(O)cc3F)nc3[nH]nc(C)c3c2c1F [Example 126, 4-(6,9-difluoro-1-methyl-8-{[2-(methyloxy)ethyl]oxy}-3H-pyrazolo[3,4-c]isoquinolin-5-yl)-3-fluorophenol]
26 | 100 to 999 nM | COc1cc2c(-c3ccc(O)cc3)nc3[nH]nc(C(C)C)c3c2cc1OC [Example 28, 4-[1-(1-methylethyl)-7,8-bis(methyloxy)-3H-pyrazolo[3,4-c]isoquinolin-5-yl]phenol]
27 | 100 to 999 nM | COc1cc2c(-c3ccc(O)c(Cl)c3)nc3[nH]ncc3c2cc1OC [Example 136, 4-[7,8-bis(methyloxy)-3H-pyrazolo[3,4-c]isoquinolin-5-yl]-2-chlorophenol]
28 | ≤ 99 nM | COc1ccc2c(-c3ccc(O)c(C)c3)nc3[nH]nc(C)c3c2c1OC [Example 71, 2-methyl-4-[1-methyl-8,9-bis(methyloxy)-3H-pyrazolo[3,4-c]isoquinolin-5-yl]phenol]
29 | ≤ 99 nM | COc1cc2c(c(-c3ccc(O)c(Cl)c3)nc3[nH]nc(C)c32)c(OC)c1OC [Example 147, 2-chloro-4-[1-methyl-6,7,8-tris(methyloxy)-3H-pyrazolo[3,4-c]isoquinolin-5-yl]phenol]
30 | ≤ 99 nM | COCCOc1cc2c(c(-c3ccc(O)c(Cl)c3)nc3[nH]nc(C)c32)c(F)c1OC [Example 179, 2-chloro-4-(6-fluoro-1-methyl-7-(methyloxy)-8-{[2-(methyloxy)ethyl]oxy}-3H-pyrazolo[3,4-c]isoquinolin-5-yl)phenol]
31 | ≤ 99 nM | COc1ccc2c(-c3ccc(O)cc3)nc3[nH]nc(C)c3c2c1OC [Example 59, 4-[1-methyl-8,9-bis(methyloxy)-3H-pyrazolo[3,4-c]isoquinolin-5-yl]phenol]
32 | ≤ 99 nM | COc1c(OCCN2CCCCC2)cc(F)c2c(-c3ccc(O)c(Cl)c3)nc3[nH]nc(C)c3c12 [Example 245, 2-chloro-4-{6-fluoro-1-methyl-9-(methyloxy)-8-[(2-piperidin-1-ylethyl)oxy]-3H-pyrazolo[3,4-c]isoquinolin-5-yl}phenol]
33 | ≤ 99 nM | COc1c(OCC2CCN(C)CC2)cc(F)c2c(-c3ccc(O)c(Br)c3)nc3[nH]nc(C)c3c12 [Example 183, 2-bromo-4-(6-fluoro-1-methyl-9-(methyloxy)-8-{[(1-methylpiperidin-4-yl)methyl]oxy}-3H-pyrazolo[3,4-c]isoquinolin-5-yl)phenol]
